Experimental data from patent US8076487B2, “Pyridone derivative and herbicide” (Kumiai Chemical Industry Co., Ltd., priority 2006, dated 2011).

How the values were obtained:
Assay type in all cases: in vivo
[1] = test system: early watergrass (Echinochloa oryzicola Vasing); assay: Test Example 1: herbicidal effect by soil application to paddy field; conditions: paddy field soil application; active ingredient 1,000 g per 1 hectare; wettable powder added dropwise to water surface the day after sowing; examined on the 21st day after application
Outline: (§1)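 Under greenhouse conditions, seeds sown on puddled paddy soil in 100 cm2 pots under 3 cm of standing water received the test compound; injury was assessed with a standard scoring scheme three weeks (day 21) after treatment.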

[2] = test system: Japanese bulrush (Scirpus juncoides Roxb.); assay: as above; conditions: paddy field soil application; active ingredient 1,000 g per 1 hectare; wettable powder added dropwise to water surface the day after sowing; examined on the 21st day after application
Outline: as §1

[3] = test system: heartshape false pickerelweed (Monochoria vaginalis (Burm.f.) C.Presl); assay: as above; conditions: paddy field soil application; active ingredient 1,000 g per 1 hectare; wettable powder added dropwise to water surface the day after sowing; examined on the 21st day after application
Outline: as §1

[4] = test system: slender amaranth (Amaranthus viridis L.); assay: Test Example 3: herbicidal effect by application to upland field (foliage treatment); conditions: foliage treatment, 1,000 g active ingredient per 1 hectare, 14th day after application, greenhouse
Outline: (§2)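 Foliage treatment, greenhouse: 2-week-old plants in field soil; wettable powder in water sprayed over the top at 1,000 g a.i./ha (1,000 L/ha); rating on day 14 post-application.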

[5] = test system: velvetleaf (Abutilon theophrasti medicus); assay: as above; conditions: foliage treatment, 1,000 g active ingredient per 1 hectare, 14th day after application, greenhouse
Outline: as §2

[6] = test system: barnyardgrass (Echinochloa crus-galli (L.) P. Beauv. var. crus-galli); assay: as above; conditions: foliage treatment, 1,000 g active ingredient per 1 hectare, 14th day after application, greenhouse
Outline: as §2

[7] = test system: green foxtail (Setaria viridis (L.) P. Beauv.); assay: as above; conditions: foliage treatment, 1,000 g active ingredient per 1 hectare, 14th day after application, greenhouse
Outline: as §2

[8] = test system: slender amaranth (Amaranthus viridis L.); assay: Test Example 2: herbicidal effect by soil application to upland field; conditions: soil surface spray, upland field soil, 1,000 g active ingredient per hectare, 21st day after application
Outline: (§3)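 Dose was 1,000 g active ingredient per hectare, applied as a wettable powder diluted in water and sprayed evenly over the soil of sown, covered pots at a 1,000 L/ha equivalent. Effect was judged by a standard scale 21 d later under greenhouse conditions.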

[9] = test system: velvetleaf (Abutilon theophrasti medicus); assay: as above; conditions: soil surface spray, upland field soil, 1,000 g active ingredient per hectare, 21st day after application
Outline: as §3

[10] = test system: barnyardgrass (Echinochloa crus-galli (L.) P. Beauv. var. crus-galli); assay: as above; conditions: soil surface spray, upland field soil, 1,000 g active ingredient per hectare, 21st day after application
Outline: as §3

[11] = test system: green foxtail (Setaria viridis (L.) P. Beauv.); assay: as above; conditions: soil surface spray, upland field soil, 1,000 g active ingredient per hectare, 21st day after application
Outline: as §3

Row | Structure (SMILES) | herbicidal effect, Echinochloa oryzicola Vasing [1] | herbicidal effect, Scirpus juncoides Roxb. [2] | herbicidal effect, Monochoria vaginalis (Burm. f.) C. Presl [3] | herbicidal effect, Slender Amaranth [4] | herbicidal effect, Velvetleaf [5] | herbicidal effect, Barnyardgrass [6] | herbicidal effect, Green Foxtail [7] | herbicidal effect (index), Slender Amaranth [8] | herbicidal effect (index), Velvetleaf [9] | herbicidal effect (index), Barnyardgrass [10] | herbicidal effect (index), Green Foxtail [11]
1 | Cc1cccc(-n2cccc(C(=O)C3=C(O)CCCC3=O)c2=O)c1 [I-238] | 5 (90% or more of herbicidal effect and crop phytotoxicity) | 5 (90% or more of herbicidal effect and crop phytotoxicity) | 5 (90% or more of herbicidal effect and crop phytotoxicity) | 5 (90% or more of herbicidal effect and crop phytotoxicity) | 5 (90% or more of herbicidal effect and crop phytotoxicity) | 5 (90% or more of herbicidal effect and crop phytotoxicity) | 4 (70 to less than 90% of herbicidal effect and crop phytotoxicity) | 5 (90% or more of herbicidal effect and crop phytotoxicity) | 5 (90% or more of herbicidal effect and crop phytotoxicity) | 5 (90% or more of herbicidal effect and crop phytotoxicity) | 4 (70 to less than 90% of herbicidal effect and crop phytotoxicity)
2 | N#Cc1ccc(C(=O)C2=C(O)CCCC2=O)c(=O)n1-c1ccccc1 [I-243] | 5 (90% or more of herbicidal effect and crop phytotoxicity) | 5 (90% or more of herbicidal effect and crop phytotoxicity) | 5 (90% or more of herbicidal effect and crop phytotoxicity) | 5 (90% or more of herbicidal effect and crop phytotoxicity) | 5 (90% or more of herbicidal effect and crop phytotoxicity) | 5 (90% or more of herbicidal effect and crop phytotoxicity) | 5 (90% or more of herbicidal effect and crop phytotoxicity) | 5 (90% or more of herbicidal effect and crop phytotoxicity) | 5 (90% or more of herbicidal effect and crop phytotoxicity) | 5 (90% or more of herbicidal effect and crop phytotoxicity) | 5 (90% or more of herbicidal effect and crop phytotoxicity)
3 | CC1CC(C)(C)C(O)=C(C(=O)c2ccc(C(F)(F)F)n(C)c2=O)C1=O (stereo not shown) [II-5] | 5 (90% or more of herbicidal effect and crop phytotoxicity) | 5 (90% or more of herbicidal effect and crop phytotoxicity) | 5 (90% or more of herbicidal effect and crop phytotoxicity) | 4 (70 to less than 90% of herbicidal effect and crop phytotoxicity) | 5 (90% or more of herbicidal effect and crop phytotoxicity) | 4 (70 to less than 90% of herbicidal effect and crop phytotoxicity) | 3 (50 to less than 70% of herbicidal effect and crop phytotoxicity) | 5 (90% or more of herbicidal effect and crop phytotoxicity) | 5 (90% or more of herbicidal effect and crop phytotoxicity) | 5 (90% or more of herbicidal effect and crop phytotoxicity) | 5 (90% or more of herbicidal effect and crop phytotoxicity)
4 | C=CCn1c(C(F)(F)F)ccc(C(=O)C2=C(OC)CCCC2=O)c1=O [II-25] | 5 (90% or more of herbicidal effect and crop phytotoxicity) | 5 (90% or more of herbicidal effect and crop phytotoxicity) | 5 (90% or more of herbicidal effect and crop phytotoxicity) | 5 (90% or more of herbicidal effect and crop phytotoxicity) | 5 (90% or more of herbicidal effect and crop phytotoxicity) | 5 (90% or more of herbicidal effect and crop phytotoxicity) | 5 (90% or more of herbicidal effect and crop phytotoxicity) | 5 (90% or more of herbicidal effect and crop phytotoxicity) | 5 (90% or more of herbicidal effect and crop phytotoxicity) | 5 (90% or more of herbicidal effect and crop phytotoxicity) | 5 (90% or more of herbicidal effect and crop phytotoxicity)
5 | COCCn1c(C(F)(F)F)ccc(C(=O)C2=C(O)C(C)(C)CCC2=O)c1=O [II-29] | 5 (90% or more of herbicidal effect and crop phytotoxicity) | 5 (90% or more of herbicidal effect and crop phytotoxicity) | 5 (90% or more of herbicidal effect and crop phytotoxicity) | 5 (90% or more of herbicidal effect and crop phytotoxicity) | 5 (90% or more of herbicidal effect and crop phytotoxicity) | 5 (90% or more of herbicidal effect and crop phytotoxicity) | 5 (90% or more of herbicidal effect and crop phytotoxicity) | 5 (90% or more of herbicidal effect and crop phytotoxicity) | 5 (90% or more of herbicidal effect and crop phytotoxicity) | 5 (90% or more of herbicidal effect and crop phytotoxicity) | 5 (90% or more of herbicidal effect and crop phytotoxicity)
6 | COCCOCCn1c(C(F)(F)F)ccc(C(=O)C2=C(O)C(C)(C)CCC2=O)c1=O [II-31] | 5 (90% or more of herbicidal effect and crop phytotoxicity) | 5 (90% or more of herbicidal effect and crop phytotoxicity) | 5 (90% or more of herbicidal effect and crop phytotoxicity) | 5 (90% or more of herbicidal effect and crop phytotoxicity) | 5 (90% or more of herbicidal effect and crop phytotoxicity) | 5 (90% or more of herbicidal effect and crop phytotoxicity) | 5 (90% or more of herbicidal effect and crop phytotoxicity) | 5 (90% or more of herbicidal effect and crop phytotoxicity) | 5 (90% or more of herbicidal effect and crop phytotoxicity) | 5 (90% or more of herbicidal effect and crop phytotoxicity) | 5 (90% or more of herbicidal effect and crop phytotoxicity)
7 | CC1(C)CCC(O)=C(C(=O)c2ccc(C(F)(F)F)n(-c3cc(F)cc(F)c3)c2=O)C1=O [II-40] | 5 (90% or more of herbicidal effect and crop phytotoxicity) | 5 (90% or more of herbicidal effect and crop phytotoxicity) | 5 (90% or more of herbicidal effect and crop phytotoxicity) | 5 (90% or more of herbicidal effect and crop phytotoxicity) | 5 (90% or more of herbicidal effect and crop phytotoxicity) | 5 (90% or more of herbicidal effect and crop phytotoxicity) | 4 (70 to less than 90% of herbicidal effect and crop phytotoxicity) | 5 (90% or more of herbicidal effect and crop phytotoxicity) | 5 (90% or more of herbicidal effect and crop phytotoxicity) | 5 (90% or more of herbicidal effect and crop phytotoxicity) | 5 (90% or more of herbicidal effect and crop phytotoxicity)
8 | CC1(C)C(=O)C(C(=O)c2ccc(C(F)(F)F)n(-c3ccccc3)c2=O)=C(O)C(C)(C)C1=O [II-41] | 5 (90% or more of herbicidal effect and crop phytotoxicity) | 4 (70 to less than 90% of herbicidal effect and crop phytotoxicity) | 5 (90% or more of herbicidal effect and crop phytotoxicity) | 4 (70 to less than 90% of herbicidal effect and crop phytotoxicity) | 5 (90% or more of herbicidal effect and crop phytotoxicity) | 5 (90% or more of herbicidal effect and crop phytotoxicity) | 5 (90% or more of herbicidal effect and crop phytotoxicity) | 5 (90% or more of herbicidal effect and crop phytotoxicity) | 5 (90% or more of herbicidal effect and crop phytotoxicity) | 4 (70 to less than 90% of herbicidal effect and crop phytotoxicity) | 5 (90% or more of herbicidal effect and crop phytotoxicity)
